From US7803824B2, “Use of inhibitors of Jun N-terminal kinases to treat glaucoma” (Alcon, Inc., priority 2004, dated 2010)

System: adult rat retinal ganglion cells (RGC)
Experiment: Cultured adult rat RGC survival under cytotoxic insults (Example 4)
Format: cell-based
Details: 30 min pre-treatment, then 100 μM glutamate for 3 days
Experimental: Adult Sprague-Dawley rats were euthanized by CO2 asphyxiation. Their eyes were enucleated and the retinas isolated. Retinal cells were treated with of papain solution for 25 min at 37° C., then washed 3 times with 5 mL RGC culture medium (Neurobasal medium with various nutrient supplements+1% fetal calf serum). Retinal cells were dispersed by trituration. Cell suspension was placed onto poly-D-lysine- and laminin-coated 8-well chambered culture slides. The cells were then cultured in 95% air/5% CO2 at 37° C.
For glutamate-induced toxicity studies, cells were pre-treated with vehicle or the indicated compounds for 30 minutes, followed by 100 μM glutamate for 3 days.
For trophic factor withdrawal studies, three trophic factors, basic fibroblast growth factor, brain-derived neurotrophic factor, and ciliary neurotrophic factor, were removed from the culture medium. Cells were cultured in this medium with the indicated compounds for 3 days.
At the end of the incubation period, the cells were fixed and labeled for Thy-1, a RGC marker, by immunocytochemistry. Cell survival was quantified by manually counting Thy-1-positive healthy cells in each well.

## C[C@]12N[C@H](Cc3ccccc31)c1ccccc12 [MK801]
  RGC survival, glutamate-induced toxicity (Thy-1-positive healthy cells): prevented
